The text below walks through data of ChEMBL document CHEMBL1201862, “PubChem BioAssay data set” (2004).

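In this assay, cells in 96-well plates receive the compound at five concentrations for 48 hours. Endpoints are linearly interpolated between the surrounding concentrations. Abbreviation: GI50, concentration required for 50% inhibition of growth.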 The source made the active and inactive calls. Rule as the data show it: active = GI50 up to about 1.1 µM and inactive = higher. Where only a bound is given, the exact number is not on record here.

Common to all, as to experiment: NCI tumour cell line growth inhibition, 48 h
Assay [1] deals with SNB-19.
Assay [2] has as its system SK-MEL-2.
Assay [3] has as its system HCT-15.
Assay [4] has as its system A498.
For assay [5], the system named is CAKI-1.
Assay [6] relates to RXF 393.
Assay [7] has as its system SK-MEL-28.
Assay [8] has as its system NCI-H23.
Assay [9] relates to K562.
Assay [10] deals with MCF7.
The subject of assay [11] is SK-OV-3.
For assay [12], the system named is SNB-75.
For assay [13], the system named is HOP-92.
For assay [14], the system named is A549.
For assay [15], the system named is SK-MEL-5.
For assay [16], the system named is Malme-3M.
In assay [17] the test system is NCI/ADR-RES.
Assay [18] deals with SF-539.
Assay [19] has as its system MOLT-4.

Take `CN(C)Cc1cc(Cl)c(O)c(CN(C)C)c1`: the GI50 in assay [1] is > 100 µM (inactive); in [2] it was > 100 µM (inactive); in assay [3], more than 100 µM; in [4], > 100 µM (inactive); in [5], > 100 µM (inactive); in assay [6], > 100 µM (inactive). The GI50 in assay [7], in assay [8], in assay [9], in assay [10], in assay [11] and in assay [12] was > 100 µM (inactive) throughout. In addition, the GI50 in [13], in [14], in assay [15], in assay [16] and in assay [17] was > 100 µM (inactive) in each case.
For the compound `C/C(=N\O)c1ccc2cc(Br)c3ccccc3c2c1`, the GI50 in [1] was 33.4 µM (inactive); in assay [2], 15.8 µM (inactive); in assay [3] it was 16 µM; in [4] it was 17.7 µM (inactive); in assay [5] it was 25.1 µM (inactive); in [6] it was 14.8 µM (inactive). For the same compound, the GI50 in assay [7] was 19.3 µM (inactive); in [8], 20 µM (inactive); in assay [9], 46.8 µM (inactive); in assay [10], 17.2 µM (inactive); in [11] it was 32.3 µM (inactive); in assay [12], 28.1 µM (inactive). Besides, the GI50 was 21 µM (inactive) in assay [13]; 37 µM (inactive) in [14]; 16.8 µM (inactive) in assay [15]; 19.8 µM (inactive) in assay [16]; 19.9 µM (inactive) in assay [17].
Take `C/C(CC/C(C)=N/O)=N\O`: the GI50 in [18] was > 100 µM (inactive); in [1] it was > 100 µM (inactive); in assay [2] it was > 100 µM (inactive); in assay [3], more than 100 µM; in assay [4], > 100 µM (inactive); in [5] it was > 100 µM (inactive). In addition, the GI50 in assay [6], in assay [7], in assay [8], in assay [9], in assay [10] and in [11] was > 100 µM (inactive) each time. Besides, the GI50 in [12], in assay [19], in assay [14], in assay [15], in assay [16] and in assay [17] was > 100 µM (inactive) in each case.
On to `O=c1cc(N2CCOCC2)[nH]c(=O)n1-c1cccc(Cl)c1`, for which the GI50 in [18] was > 100 µM (inactive); in [1], > 100 µM (inactive); in [2] it was > 100 µM (inactive); in assay [3] it was more than 100 µM; in [4], 32.4 µM (inactive); in assay [5], > 100 µM (inactive). In addition, the GI50 in [6], in [7], in assay [8], in assay [9], in assay [10] and in [11] was > 100 µM (inactive) each time. Besides, the GI50 in [12], in assay [19], in assay [13], in assay [16] and in assay [17] was > 100 µM (inactive) each time.
Take `CN1CCN(c2cc3[nH]c(-c4ccc(Cl)cc4)nc3cc2F)CC1`: the GI50 in [1] is 21.3 µM (inactive); in assay [2] it was 16.8 µM (inactive); in [3] it was 5.42 µM; in [4] it was 18.2 µM (inactive); in assay [5], 19.5 µM (inactive); in assay [6] it was 13.8 µM (inactive). The GI50 in [7] is 8.75 µM (inactive); in assay [8], 15.8 µM (inactive); in [9], 3.78 µM (inactive); in assay [10] it was 7.82 µM (inactive); in [11], 22.2 µM (inactive); in [12] it was 14.7 µM (inactive). Also, the GI50 in assay [19] is 10.9 µM (inactive); in assay [13], 25.4 µM (inactive); in assay [14], 17.6 µM (inactive); in assay [15], 10.6 µM (inactive); in assay [16], 10.5 µM (inactive); in assay [17], 21 µM (inactive).
With `Nc1nc(Cl)cc(OCC2(CO)CCCCC2)n1`, the GI50 in assay [18] was > 100 µM (inactive); in assay [1], > 100 µM (inactive); in assay [3], 24.5 µM; in assay [4], 40.7 µM (inactive); in [6] it was 63.7 µM (inactive); in assay [7] it was > 100 µM (inactive). The GI50 was > 100 µM (inactive) in assay [8]; > 10 µM (inactive) in assay [9]; 50.5 µM (inactive) in assay [10]; 66.1 µM (inactive) in assay [12]; > 100 µM (inactive) in [19]; 40.7 µM (inactive) in [13]. The GI50 was 69.7 µM (inactive) in [14], 40.9 µM (inactive) in assay [15], > 100 µM (inactive) in assay [16] and > 100 µM (inactive) in [17].
As to `CN1CCN(C2=C(Cl)C3(OCCS3)C(F)(F)C2(F)F)CC1` (configuration not stated), the GI50 in [18] is > 100 µM (inactive); in assay [1] it was > 100 µM (inactive); in assay [2], > 100 µM (inactive); in assay [3], 79.6 µM; in assay [4], > 100 µM (inactive); in [5] it was > 100 µM (inactive). Moreover, the GI50 was > 100 µM (inactive) in [6]; 27.1 µM (inactive) in [8]; 29.8 µM (inactive) in assay [9]; > 100 µM (inactive) in assay [10]; > 100 µM (inactive) in [11]; 51.3 µM (inactive) in assay [12]. In addition, the GI50 in [19] was 45.4 µM (inactive); in assay [13], 66.5 µM (inactive); in assay [14] it was 95.9 µM (inactive); in assay [15], 16.6 µM (inactive); in assay [16], > 100 µM (inactive); in assay [17], 79.6 µM (inactive).
In the case of `COc1cc2ccc1OCc1cccc(n1)COc1ccc(cc1OC)/C=N\c1ccc(cc1)/N=C\2`, the GI50 in assay [18] is > 100 µM (inactive); in [1], > 100 µM (inactive); in assay [2], > 100 µM (inactive); in assay [3], more than 100 µM; in [4], > 100 µM (inactive); in assay [5], > 100 µM (inactive). Further, the GI50 in assay [6], in [8], in assay [9], in assay [10], in assay [11] and in assay [12] was > 100 µM (inactive) throughout. Further, the GI50 in assay [19], in [13], in assay [14], in [15], in [16] and in [17] was > 100 µM (inactive) each time.
Turning to `CC(C)(Oc1ccccc1)C(=O)Sc1c(-c2ccccc2)c(=O)n(-c2ccccc2)c(=S)n1-c1ccccc1`, the GI50 in [18] was 23.8 µM (inactive); in assay [1] it was 47.2 µM (inactive); in assay [3], 56.6 µM; in [4] it was 80.9 µM (inactive); in assay [5], > 100 µM (inactive); in assay [6] it was 26.4 µM (inactive). Further, the GI50 in assay [7] was 49.7 µM (inactive); in assay [8], > 100 µM (inactive); in [9] it was 41.4 µM (inactive); in [10], 46.6 µM (inactive); in assay [11], 26.7 µM (inactive); in assay [12], > 100 µM (inactive). In addition, the GI50 in [19] was 36.4 µM (inactive); in assay [13], > 100 µM (inactive); in [14] it was 43.3 µM (inactive); in assay [16], 95.5 µM (inactive); in assay [17] it was 62.7 µM (inactive).
With `C/C=C(\C)C(=O)OC1C(C)=C2C(C1OC(=O)CCCC)C(C)(OC(C)=O)CC(OC(=O)CCCC)C1(O)C2OC(=O)C1(C)O` (configuration not stated), the GI50 in assay [18] is 0.944 µM (active); in assay [1] it was 0.41 µM (active); in assay [2], 0.48 µM (active); in assay [3], 21 µM; in assay [4] it was 6.47 µM (inactive); in [5], 5.13 µM (inactive). Further, the GI50 in [6] is 0.598 µM (active); in [7] it was 0.893 µM (active); in assay [8], 1.14 µM (inactive); in assay [9], 2.2 µM (inactive); in assay [10], 0.394 µM (active); in assay [11], 4.11 µM (inactive). The GI50 is 0.828 µM (active) in [12]; 1.46 µM (inactive) in assay [19]; 0.746 µM (active) in assay [13]; 1.03 µM (active) in assay [14]; 1.73 µM (inactive) in assay [15]; 36.9 µM (inactive) in assay [17].
As to `CN(C)CCO/N=C1/C=C2CC[C@H]3[C@@H]4CC[C@H](O)[C@@]4(C)CC[C@@H]3[C@@]2(C)CC1`, the GI50 in assay [18] was 3.51 µM (inactive); in [1], 27.4 µM (inactive); in assay [2], 13.9 µM (inactive); in assay [3], 13.9 µM; in [4] it was 15.7 µM (inactive); in [5], 31.9 µM (inactive). Also, the GI50 in assay [6] is 9.59 µM (inactive); in assay [7] it was 13.8 µM (inactive); in assay [8] it was 11.4 µM (inactive); in assay [9] it was 6.22 µM (inactive); in assay [10], 22.8 µM (inactive); in assay [11] it was 8.67 µM (inactive). Also, the GI50 in assay [12] was 3.48 µM (inactive); in assay [19], 8.55 µM (inactive); in assay [13], 7.85 µM (inactive); in assay [14], 18.3 µM (inactive); in assay [15], 8.71 µM (inactive); in assay [17], 3.18 µM (inactive).
